Measurements reported in patent US3959351A, “Haloalkylbenzoyl esters of di-lower alkylamino alkanols and quaternary lower alkyl salts thereof” (priority 1972, dated 1976).

Target: electric eel cholinesterase (Type V) (Electrophorus electricus, UniProt O42275)
Experiment: Inhibition of electric eel cholinesterase (Type V) by substituted benzoyl cholines (method of Rappaport et al.)
Type: biochemical
Conditions: incubated with enzyme at room temperature (22°) for 40 minutes
Description: As stated heretofore, the compounds of the present invention when tested for inhibition of eel cholinesterase show good activity at rather low concentrations. Inhibition of cholinesterase activity of generally recognized as having positive correlation which insecticidal activity.
INHIBITION OF ELECTRIC EEL CHOLINESTERASE (TYPE V)
BY SUBSTITUTED BENZOYL CHOLINES
Activity Measurement Method:
*Reagent incubated with enzyme at room temperature (22°) for 40

[1] = 40 min, Bromomethyl- reagent type, concentration 10^-^4 M
[2] = Bromomethyl- reagent type, concentration 10^-^6 M
[3] = Bromomethyl- reagent type, concentration 10^-^4 M
[4] = 40 min, Formyl- reagent type, concentration 10^-^4 M
[5] = Formyl- reagent type, concentration 10^-^3 M
[6] = Formyl- reagent type, concentration 10^-^4 M

Sequence of electric eel cholinesterase (Type V) (O42275 24-633): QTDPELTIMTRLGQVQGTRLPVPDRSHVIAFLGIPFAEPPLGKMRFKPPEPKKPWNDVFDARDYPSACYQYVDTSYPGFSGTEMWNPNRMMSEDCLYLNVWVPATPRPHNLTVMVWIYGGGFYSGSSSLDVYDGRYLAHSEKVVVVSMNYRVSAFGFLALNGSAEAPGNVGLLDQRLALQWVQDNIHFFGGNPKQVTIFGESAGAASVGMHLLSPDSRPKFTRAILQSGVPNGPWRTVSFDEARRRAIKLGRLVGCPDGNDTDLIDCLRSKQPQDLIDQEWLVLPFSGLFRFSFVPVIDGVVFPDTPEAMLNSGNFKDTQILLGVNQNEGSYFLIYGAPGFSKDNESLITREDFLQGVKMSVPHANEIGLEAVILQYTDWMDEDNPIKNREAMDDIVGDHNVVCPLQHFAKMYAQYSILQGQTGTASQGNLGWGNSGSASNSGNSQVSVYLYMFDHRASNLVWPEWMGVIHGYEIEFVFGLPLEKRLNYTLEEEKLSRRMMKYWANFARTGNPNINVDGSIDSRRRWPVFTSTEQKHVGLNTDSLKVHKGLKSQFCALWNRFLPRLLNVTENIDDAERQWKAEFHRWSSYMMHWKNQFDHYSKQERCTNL

In the case of C[N+](C)(C)CCOC(=O)c1cc(CBr)ccc1CBr.[I-] [2,5 Bromomethyl-, 2,5-di(bromomethyl)benzoyl choline iodide], the inhibition at 100 µM [1] is reported as 80% and the INHIBITION [2] is reported as “None”.
In the case of C[N+](C)(C)CCOC(=O)c1ccc(CBr)cc1.[I-] [para Bromomethyl-, para-bromomethyl benzoyl choline iodide], the INHIBITION [3] is reported as “Complete” and the INHIBITION [2] is reported as “None”.
In the case of C[N+](C)(C)CCOC(=O)c1cc(C=O)ccc1C=O.[I-] [2,5 Formyl-, 2,5-diformylbenzoyl choline iodide], the inhibition at 100 µM [4] is reported as 50% and the INHIBITION [5] is reported as “Complete”.
For C[N+](C)(C)CCOC(=O)c1cccc(CBr)c1CBr.[I-] [2,3 Bromomethyl-, 2,3-di(bromomethyl)benzoyl choline iodide], the inhibition at 100 µM [1] was 40% and the INHIBITION [2] was “None”.
In the case of C[N+](C)(C)CCOC(=O)c1ccc(CBr)cc1CBr.[I-] [2,4 Bromomethyl-, 2,4-di(bromomethyl)benzoyl choline iodide], the INHIBITION [3] is reported as “Complete” and the INHIBITION [2] is reported as “None”.
C[N+](C)(C)CCOC(=O)c1ccc(C=O)c(C=O)c1.[I-] [3,4 Formyl-, 3,4-diformylbenzoyl choline iodide] was tested, and the inhibition at 100 µM [4] was 25% and the INHIBITION [5] was “Complete”.
In the case of C[N+](C)(C)CCOC(=O)c1cccc(CBr)c1.[I-] [meta Bromomethyl-, m-bromomethyl benzoyl choline iodide], the INHIBITION [3] is reported as “None” and the INHIBITION [2] is reported as “None”.
In the case of C[N+](C)(C)CCOC(=O)c1ccc(C=O)cc1.[Br-] [para Formyl-, p-Formyl benzoyl choline bromide], the INHIBITION [5] is reported as “Complete” and the INHIBITION [6] is reported as “None”.
In the case of C[N+](C)(C)CCOC(=O)c1ccccc1C=O.[I-] [ortho Formyl-, o-formylbenzoyl choline iodide], the INHIBITION [5] is reported as “None” and the INHIBITION [6] is reported as “None”.
C[N+](C)(C)CCOC(=O)c1cc(C=O)cc(C=O)c1.[I-] [3,5 Formyl-, 3,5-diformylbenzoyl choline iodide] was tested, and the INHIBITION [5] was “Complete” and the INHIBITION [6] was “Complete”.
In the case of C[N+](C)(C)CCOC(=O)c1cccc(C=O)c1.[I-] [meta Formyl-, m-formylbenzoyl choline iodide], the inhibition at 1000 µM (40 min, Formyl- reagent type, concentration 10^-^3 M) is reported as 60% and the INHIBITION [6] is reported as “None”.
With C[N+](C)(C)CCOC(=O)c1ccc(C=O)cc1C=O.[I-] [2,4 Formyl-, 2,4-diformylbenzoyl choline iodide] the inhibition at 100 µM [4] was 50% and the INHIBITION [5] was “Complete”.
For C[N+](C)(C)CCOC(=O)c1cccc(C=O)c1C=O.[I-] [2,3 Formyl-, 2,3-diformylbenzoyl choline iodide], the inhibition at 100 µM [4] was 50% and the INHIBITION [5] was “Complete”.
For C[N+](C)(C)CCOC(=O)c1cc(CBr)cc(CBr)c1.[I-] [3,5 Bromomethyl-, 3,5-di(bromomethyl)benzoyl choline iodide], the inhibition at 100 µM [1] was 90% and the INHIBITION [2] was “None”.
For C[N+](C)(C)CCOC(=O)c1ccc(CBr)c(CBr)c1 [3,4 Bromomethyl-, 3,4-di(bromomethyl)benzoyl choline iodide], the inhibition at 100 µM [1] was 90% and the inhibition at 1 µM (40 min, Bromomethyl- reagent type, concentration 10^-^6 M) was 30%.
With C[N+](C)(C)CCOC(=O)c1ccccc1CBr.[I-] [ortho Bromomethyl-, o-bromomethyl benzoyl choline iodide] the INHIBITION [3] was “None” and the INHIBITION [2] was “None”.
